What was measured:
Leptosphaeria nodorum = Leptosphaeria nodorum test (wheat)/protective; assay type: in vivo; settings: protective spray, application rate 100 g/ha, evaluation 10 days after inoculation
Protocol: Leptosphaeria nodorum test (wheat)/protective Solvent: 25 parts by weight of N,N-dimethylacetamide Emulsifier: 0.6 part by weight of alkylaryl polyglycol ether To produce a suitable preparation of active compound, 1 part by weight of active compound combination is mixed with the stated amounts of solvent and emulsifier, and the concentrate is diluted with water to the desired concentration. To test for protective activity, young plants are sprayed with the preparation of active compound at the stated application rate. After the spray coating has dried on, the plants are sprayed with a spore suspension of Leptosphaeria nodorum. The plants remain in an incubation cabin at 20° C. and 100% relative atmospheric humidity for 48 hours. The plants are placed in a greenhouse at a temperature of about 15° C. and a relative atmospheric humidity of 80%. Evaluation is carried out 10 days after the inoculation. 0% means an efficacy which corresponds to that of the control, whereas an efficacy of 100% means that no infection is observed.

Puccinia recondita = assay: Puccinia test (wheat)/curative; assay type: in vivo; settings: curative spray 48 hours after inoculation, application rate 25 g/ha, evaluation 10 days after inoculation
Protocol: Puccinia test (wheat)/curative
Solvent: 25 parts by weight of N,N-dimethylacetamide
Emulsifier: 0.6 part by weight of alkylaryi polyglycol ether
To produce a suitable preparation of active compound, 1 part by weight of active compound combination is mixed with the stated amounts of solvent and emulsifier, and the concentrate is diluted with water to the desired concentration.
To test for curative activity, young plants are inoculated with a spore suspension of Puccinia recondita in a 0.1% strength aqueous agar solution. 48 hours after the inoculation, the plants are sprayed with the preparation of active compound at the stated application rate.
The plants are placed in a greenhouse at a temperature of about 20° C. and a relative atmospheric humidity of about 80% to promote the development of rust pustules.
Evaluation is carried out 10 days after the inoculation. 0% means an efficacy which corresponds to that of the control, whereas an efficacy of 100% means that no infection is observed.

CO/N=C(/C(=O)OC)c1ccccc1CO/N=C(\C)c1cccc(C(F)(F)F)c1 [Ex. (I), 2-[α-{[(α-methyl-3-trifluoromethylbenzyl)imino]oxy}-o-tolyl]glyoxylic acid methyl ester O-methyl oxime]
Efficacy in % (Leptosphaeria nodorum): 67%
Efficacy in % (Puccinia recondita): 0%

OC(Cc1ccccc1Cl)(Cn1nc[nH]c1=S)C1(Cl)CC1 (stereo not shown) [Ex. (II)]
Efficacy in % (Leptosphaeria nodorum): 56%
Efficacy in % (Puccinia recondita): 43%
